These results are taken from patent US20250100968A1, “BICYCLIC-HETEROCYCLE DERIVATIVES AND RELATED USES” (CENTESSA PHARMACEUTICALS (UK) LIMITED, priority 2022, published 2025).

Like-named read-outs stand apart in the source and are kept apart here.

The target of assay [1] is T1, OX2R (Mus musculus, UniProt P58308).
T1 construct: host or cells: mice (WT, orexin-deficient, orexin-neuron ablated)
T1 sequence (P58308 1-460): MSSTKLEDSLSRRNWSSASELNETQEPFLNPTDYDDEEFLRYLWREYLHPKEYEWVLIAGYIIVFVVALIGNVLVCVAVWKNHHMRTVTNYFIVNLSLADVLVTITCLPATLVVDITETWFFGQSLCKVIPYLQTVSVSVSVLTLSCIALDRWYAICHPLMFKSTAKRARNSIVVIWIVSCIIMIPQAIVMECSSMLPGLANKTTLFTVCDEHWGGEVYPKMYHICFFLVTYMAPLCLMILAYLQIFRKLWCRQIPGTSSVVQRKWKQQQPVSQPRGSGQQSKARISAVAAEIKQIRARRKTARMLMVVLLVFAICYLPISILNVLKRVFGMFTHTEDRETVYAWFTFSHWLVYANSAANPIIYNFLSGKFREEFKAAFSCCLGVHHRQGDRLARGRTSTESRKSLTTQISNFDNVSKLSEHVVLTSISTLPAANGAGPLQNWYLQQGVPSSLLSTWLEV
The conditions noted are these: cited from earlier work.

In assay [2] the target is T2, OX2R (Homo sapiens, UniProt O43614).
T2 construct: host or cells: individuals with NT1
T2 sequence (O43614 1-444): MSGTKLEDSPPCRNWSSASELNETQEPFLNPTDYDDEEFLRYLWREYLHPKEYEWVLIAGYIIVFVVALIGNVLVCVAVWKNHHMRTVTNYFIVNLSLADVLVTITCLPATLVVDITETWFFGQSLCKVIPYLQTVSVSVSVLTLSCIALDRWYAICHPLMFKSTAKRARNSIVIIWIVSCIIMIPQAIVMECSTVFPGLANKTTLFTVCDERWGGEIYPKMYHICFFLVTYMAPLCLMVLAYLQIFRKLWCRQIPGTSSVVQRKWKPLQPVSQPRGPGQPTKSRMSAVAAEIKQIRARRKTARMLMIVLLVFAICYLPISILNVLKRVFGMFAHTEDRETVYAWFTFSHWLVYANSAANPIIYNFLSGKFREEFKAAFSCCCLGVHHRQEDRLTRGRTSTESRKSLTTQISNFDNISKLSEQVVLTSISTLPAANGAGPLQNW
The conditions noted are these: individuals with NT1; initial clinical studies; cited from earlier work.

Assay [3] deals with T3, human orexin type 2 receptor (hOX2R) (Homo sapiens, UniProt O43614).
T3 sequence (O43614 1-444): T2 sequence (O43614 1-444)
Kind of assay: cell-based.
Experimental: Measurement of orexin type 2 receptor agonist activity. […] After removal of the medium, 50 μl of assay buffer 1 (0.1% bovine serum albumin (Sigma Aldrich), 20 mM HEPES (Molecular Dimensions), 250 mM probenecid (Sigma Aldrich), 1× Calcium 5 dye (Molecular Devices) in Hank's balanced salt solution (Invitrogen)) was added, and the cells were incubated for 60 min under the conditions of 37° C., 5% CO2. A test compound was dissolved in dimethyl sulfoxide (Sigma Aldrich) to 10 mM, and then diluted with assay buffer 2 (20 mM HEPES, Hank's balanced salt solution, 0.1% bovine serum albumin). For the reaction, a test compound solution (10 μl) was added using Fluorescent Imaging Plate Reader TETRA (FLIPR TETRA: manufactured by Molecular Devices), a fluorescence value (excitation wavelength 488 nm, measurement wavelength 570 nm) of each well was measured every one second for 2 min, and the agonist activity was determined using the area of the fluorescence value as an indicator of intracellular Ca^2+ concentration. The agonist activity of the test compound was calculated assuming that the fluorescence value of the well added with only the dilution buffer was 0% and the fluorescence value of the well added with 10 nM human orexin A (Tocris) buffer was 100%.
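Wherever EC50 is given: agonist activity in CHO cells stably expressing hOX2R, intracellular Ca2+ via Calcium 5 dye fluorescence area over 2 min, buffer-only as 0% and 10 nM orexin A as 100%.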

Take `COc1ccc(-c2cccc(C(=O)N(C)C)c2)cc1S(=O)(=O)Nc1cccc(NCCNC(=O)c2ccccc2N(C)C)c1` [YNT-185]: on OX2R [1] (intraperitoneally or ICV, NT1 mouse model), the “sleep-onset REM periods and cataplexy-like events” value is “decrease sleep-onset REM periods and cataplexy-like events”. For the same compound, at OX2R [1] (intraperitoneally or ICV, wild type (WT) and orexin ligand-deficient mice), the wakefulness result is “modestly increases wakefulness”.
On to `COC(=O)N1CCC[C@H](NS(C)(=O)=O)[C@@H]1CO[C@H]1CC[C@@H](c2ccccc2)CC1` [TAK-925], for which the wakefulness result at OX2R [1] (subcutaneous administration, WT mice) is on record as “modestly increased wakefulness”; at OX2R [2], “substantial levels of increased wakefulness”. In addition, on OX2R [2], the cataplexy entry is listed as “trends for decreasing cataplexy”.
What is called EC50 is the concentration giving half of the maximal effect. In the case of `O=C([C@@H](O)C1CC1)N1CC2(CC2)[C@H](NS(=O)(=O)C(F)F)[C@@H]1Cc1cc(F)cc(-c2ccccc2)c1F` [compound 27, N-((6S,7S)-5-((S)-2-cyclopropyl-2-hydroxyacetyl)-6-((2,5-difluoro-[1,1′-biphenyl]-3-yl)methyl)-5-azaspiro[2.4]heptan-7-yl)-1,1-difluoromethanesulfonamide], in assay [3], the EC50 lay in the range of 0.0631 to 1 nM.
The compound `CO[C@H](C)C(=O)N1CC2(CC2)[C@H](NS(=O)(=O)C(F)F)[C@@H]1Cc1cccc(-c2cc(F)cc(F)c2)c1F` [compound 64, 1,1-difluoro-N-((6S,7S)-5-((R)-2-methoxypropanoyl)-6-((2,3′,5′-trifluoro-[1,1′-biphenyl]-3-yl)methyl)-5-azaspiro[2.4]heptan-7-yl)methanesulfonamide] showed an EC50 in assay [3] of 1 to 10 nM.
`C[C@@](O)(CF)C(=O)N1CC2(CC2)[C@H](NS(=O)(=O)CF)[C@@H]1Cc1cccc(-c2ccccc2)c1F` [compound 35, 1-fluoro-N-((6S,7S)-5-((S)-3-fluoro-2-hydroxy-2-methylpropanoyl)-6-((2-fluoro-[1,1′-biphenyl]-3-yl)methyl)-5-azaspiro[2.4]heptan-7-yl)methanesulfonamide] had an EC50 in assay [3] of 0.0631 to 1 nM.
Same read-out and setting: the same measure for `C[C@H](C#N)C(=O)N1CC2(CC2)[C@H](NS(=O)(=O)C(F)F)[C@@H]1Cc1cccc(-c2ccccc2)c1F` [compound 40, N-((6S,7S)-5-((R)-2-cyanopropanoyl)-6-((2-fluoro-[1,1′-biphenyl]-3-yl)methyl)-5-azaspiro[2.4]heptan-7-yl)-1,1-difluoromethanesulfonamide]: 1 to 10 nM.
The same measure, in the same setting: the value for `C[C@@H](NC(=O)N1CC2(CC2)[C@H](NS(=O)(=O)CF)[C@@H]1Cc1cccc(-c2cc(F)cc(F)c2)c1F)C(F)F` [compound 4, (6S,7S)-N-((R)-1,1-difluoropropan-2-yl)-7-((fluoromethyl)sulfonamido)-6-((2,3′,5′-trifluoro-[1,1′-biphenyl]-3-yl)methyl)-5-azaspiro[2.4]heptane-5-carboxamide] was 1 to 10 nM; that for `N#CC1(C(=O)N2CC3(CC3)[C@H](NS(=O)(=O)CF)[C@@H]2Cc2cc(F)cc(-c3ccccc3)c2F)CCC1` [compound 13, N-((6S,7S)-5-(1-cyanocyclobutane-1-carbonyl)-6-((2,5-difluoro-[1,1′-biphenyl]-3-yl)methyl)-5-azaspiro[2.4]heptan-7-yl)-1-fluoromethanesulfonamide] was 0.0631 to 1 nM; that for `C[C@@H](NC(=O)N1CC2(CC2)[C@H](NS(=O)(=O)C(F)F)[C@@H]1Cc1cccc(-c2cc(F)cc(F)c2)c1F)C(F)F` [compound 60, (6S,7S)-7-((difluoromethyl)sulfonamido)-N-((R)-1,1-difluoropropan-2-yl)-6-((2,3′,5′-trifluoro-[1,1′-biphenyl]-3-yl)methyl)-5-azaspiro[2.4]heptane-5-carboxamide] was 1 to 10 nM.
In assay [3], `C[C@H](C#N)C(=O)N1CC2(CC2)[C@H](NS(=O)(=O)CF)[C@@H]1Cc1cccc(-c2cc(F)cc(F)c2)c1F` [compound 62, N-((6S,7S)-5-((R)-2-cyanopropanoyl)-6-((2,3′,5′-trifluoro-[1,1′-biphenyl]-3-yl)methyl)-5-azaspiro[2.4]heptan-7-yl)-1-fluoromethanesulfonamide] had an EC50 of 1 to 10 nM.
The same measure, in the same setting: the value for `O=C([C@H]1CCO1)N1CC2(CC2)[C@H](NS(=O)(=O)C2(F)CC2)[C@@H]1Cc1cc(F)cc(-c2ccccc2)c1F` [compound 87, N-((6S,7S)-6-((2,5-difluoro-[1,1′-biphenyl]-3-yl)methyl)-5-((R)-oxetane-2-carbonyl)-5-azaspiro[2.4]heptan-7-yl)-1-fluorocyclopropane-1-sulfonamide] was 1 to 10 nM.
